This note sets out measurements from US20260022142A1, “MACROCYCLIC IMMUNOMODULATORS” (Bristol-Myers Squibb Company, priority 2022, published 2026).

Bridge positions count the residues as written; N and C are the ends. Square brackets hold non-standard residues; d marks the D form. Peptide text beside a SMILES is read from it. * marks the point of attachment. ξ: configuration not given here. Phe(4-CONH2) = NC(=O)c1ccc(C[C@H](N)C(=O)O)cc1; Phe(4-COOH) = N[C@@H](Cc1ccc(C(=O)O)cc1)C(=O)O; Bip = N[C@@H](Cc1ccc(-c2ccccc2)cc1)C(=O)O; Phe(4-CN) = N#Cc1ccc(C[C@H](N)C(=O)O)cc1; Phe(3-Me) = Cc1cccc(C[C@H](N)C(=O)O)c1; Val(3-OH) = CC(C)(O)[C@H](N)C(=O)O; hArg = N=C(N)NCCCC[C@H](N)C(=O)O; 4Pal = N[C@@H](Cc1ccncc1)C(=O)O; Cha = N[C@@H](CC1CCCCC1)C(=O)O; Cit = NC(=O)NCCC[C@H](N)C(=O)O; Gly(cPr) = N[C@H](C(=O)O)C1CC1; Thr(3ξ) = CC(O)[C@H](N)C(=O)O; 12Ado = NCCCCCCCCCCCC(=O)O; Carboxymethyl = O=C(O)C*; Orn = NCCC[C@H](N)C(=O)O; Aun = NCCCCCCCCCCC(=O)O; Dab = NCC[C@H](N)C(=O)O; Dap = NC[C@H](N)C(=O)O; AEEA = NCCOCCOCC(=O)O

The target of the first assay is T1, PD-1/PD-L1 interaction (PE-labeled human PD-L1-Ig binding to Jurkat cell line over-expressing human PD-1) (Homo sapiens, UniProt Q15116).
T1 construct: expressed in transfected cells; host or cells: Jurkat
T1 sequence (Q15116 25-288): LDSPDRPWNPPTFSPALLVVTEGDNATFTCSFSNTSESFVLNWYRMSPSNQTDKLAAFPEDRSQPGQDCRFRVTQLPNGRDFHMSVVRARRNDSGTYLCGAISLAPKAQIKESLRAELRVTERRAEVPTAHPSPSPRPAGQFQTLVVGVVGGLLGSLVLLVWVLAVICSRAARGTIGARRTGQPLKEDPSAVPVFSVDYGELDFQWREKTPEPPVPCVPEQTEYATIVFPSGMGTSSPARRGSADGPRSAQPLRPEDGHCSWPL
The assay is described as follows: Jurkat-PD-1 Cell Binding High-Content Screening Assay (CBA). It is filed as cell-based. As to conditions: Jurkat cell line over-expressing human PD-1; PE-labeled PD-L1-Ig 20 nM final; read-out: Jurkat hPD1-PDL1 IC50. In short, it runs like this: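 Human PD-L1-Ig carrying a covalent PE label on its Ig tag serves as the probe, applied at 20 nM final to compound-treated (2 h, 37° C) Jurkat-hPD-1 cells in medium with 10% fetal calf serum. After one hour, fixation and nuclear staining precede high-content image analysis.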
A word on the IC50: it is the concentration needed to halve the response being measured. Regarding `Cc1cccc(C[C@@H]2NC(=O)[C@H](CC(=O)O)NC(=O)[C@H](Cc3ccc(OCC(=O)O)cc3)NC(=O)[C@H](CN)NC(=O)CSC[C@@H](C(=O)NCCOCCOCC(=O)NCCCCCCCCCCC(=O)O)NC(=O)[C@H](CCCN)NC(=O)[C@H](C(C)C)NC(=O)[C@H](CC3CCCCC3)NC(=O)[C@H](CCN)NC(=O)[C@@H](CC(C)C)NC(=O)[C@H](CCCN)NC(=O)[C@H](C(C)C)NC(=O)[C@H](Cc3ccc(-c4ccccc4)cc3)NC(=O)[C@H](C(C)C)NC2=O)c1` [Compound 2567] ({CH2CO}-[Dap]Y(Carboxymethyl)D[Phe(3-Me)]V[Bip]V[Orn][dL][Dab][Cha]V[Orn]C[AEEA][Aun]-OH; thioether N-14), the IC50 stood at 5.3 nM. For the molecule `CC(C)C[C@H]1NC(=O)[C@H](CCCN)NC(=O)[C@H](C(C)C)NC(=O)[C@H](Cc2ccc(-c3ccccc3)cc2)NC(=O)[C@H](C(C)C)NC(=O)[C@H](Cc2c[nH]c3ccccc23)NC(=O)[C@H](CC(=O)O)NC(=O)[C@H](Cc2ccc(OCC(=O)O)cc2)NC(=O)[C@H](CCCCNC(=N)N)NC(=O)CSC[C@@H](C(=O)N[C@@H](CCN)C(=O)NCCOCCOCC(=O)NCCCCCCCCCCC(=O)O)NC(=O)[C@H](CN)NC(=O)[C@H](C(C)C)NC(=O)[C@H](CC2CCCCC2)NC(=O)[C@H](CC(N)=O)NC1=O` [Compound 3214] ({CH2CO}-[hArg]Y(Carboxymethyl)DWV[Bip]V[Orn][dL]N[Cha]V[Dap]C[Dab][AEEA][Aun]-OH; thioether N-14), the IC50 amounted to 22.8 nM. Same read-out and setting: for `Cc1cccc(C[C@@H]2NC(=O)[C@H](CC(=O)O)NC(=O)[C@H](Cc3ccc(OCC(=O)O)cc3)NC(=O)[C@H](Cc3ccncc3)NC(=O)CSC[C@@H](C(=O)N[C@@H](CCN)C(=O)NCCCCCCCCCCC(=O)O)NC(=O)[C@H](CO)NC(=O)[C@H](C(C)(C)O)NC(=O)[C@H](CC3CCCCC3)NC(=O)[C@H](CCN)NC(=O)[C@@H](CC(C)C)NC(=O)[C@H](CCCN)NC(=O)[C@H](Cc3ccc(OCC(=O)O)cc3)NC(=O)[C@H](Cc3ccc(-c4ccccc4)cc3)NC(=O)[C@H](C3CC3)NC2=O)c1` [Compound 2189] ({CH2CO}-[4Pal]Y(Carboxymethyl)D[Phe(3-Me)][Gly(cPr)][Bip]Y(Carboxymethyl)[Orn][dL][Dab][Cha][Val(3-OH)]SC[Dab][Aun]-OH; thioether N-14) the value was 18.2 nM; for `CC(C)C[C@H]1NC(=O)[C@H](CCCN)NC(=O)[C@H](CCCNC(N)=O)NC(=O)[C@H](Cc2ccc(-c3ccccc3)cc2)NC(=O)[C@H](C(C)C)NC(=O)[C@H](Cc2c[nH]c3ccccc23)NC(=O)[C@H](CC(=O)O)NC(=O)[C@H](Cc2ccc(OCC(=O)O)cc2)NC(=O)[C@H](CCCNC(=N)N)NC(=O)CSC[C@@H](C(=O)N[C@@H](CCC(=O)O)C(=O)NCCOCCOCC(=O)NCCCCCCCCCCC(=O)O)NC(=O)[C@H](C(C)O)NC(=O)[C@H](C(C)C)NC(=O)[C@H](CC2CCCCC2)NC(=O)[C@H](CCN)NC1=O` (stereo partly drawn) [Compound 3399] ({CH2CO}-RY(Carboxymethyl)DWV[Bip][Cit][Orn][dL][Dab][Cha]V[Thr(3ξ)]CE[AEEA][Aun]-OH; thioether N-14), 19.4 nM; for `CC(C)C[C@H]1NC(=O)[C@H](CCCN)NC(=O)[C@H](C(C)C)NC(=O)[C@H](Cc2ccc(-c3ccccc3)cc2)NC(=O)[C@H](C(C)C)NC(=O)[C@H](Cc2c[nH]c3ccccc23)NC(=O)[C@H](CC(=O)O)NC(=O)[C@H](Cc2ccc(OCC(=O)O)cc2)NC(=O)[C@H](CCCCNC(=N)N)NC(=O)CSC[C@@H](C(=O)N[C@@H](CCN)C(=O)NCCOCCOCC(=O)NCCCCCCCCCCC(=O)O)NC(=O)[C@H](CCCN)NC(=O)[C@H](C(C)C)NC(=O)[C@H](CC2CCCCC2)NC(=O)[C@H](CC(N)=O)NC1=O` [Compound 3216] ({CH2CO}-[hArg]Y(Carboxymethyl)DWV[Bip]V[Orn][dL]N[Cha]V[Orn]C[Dab][AEEA][Aun]-OH; thioether N-14), 35.2 nM. Same read-out and setting: the same measure for `Cc1cccc(C[C@@H]2NC(=O)[C@H](CC(=O)O)NC(=O)[C@H](Cc3ccc(C(=O)O)cc3)NC(=O)[C@H](Cc3ccc(C#N)cc3)NC(=O)CSC[C@@H](C(=O)N[C@@H](CCN)C(=O)NCCOCCOCC(=O)NCCCCCCCCCCC(=O)O)NC(=O)[C@H](CO)NC(=O)[C@H](C(C)(C)O)NC(=O)[C@H](CC3CCCCC3)NC(=O)[C@H](CCN)NC(=O)[C@@H](CC(C)C)NC(=O)[C@H](CCCN)NC(=O)[C@H](Cc3ccc(OCC(=O)O)cc3)NC(=O)[C@H](Cc3ccc(-c4ccccc4)cc3)NC(=O)[C@H](Cc3ccc(OCC(=O)O)cc3)NC2=O)c1` [Compound 2242] ({CH2CO}-[Phe(4-CN)][Phe(4-COOH)]D[Phe(3-Me)]Y(Carboxymethyl)[Bip]Y(Carboxymethyl)[Orn][dL][Dab][Cha][Val(3-OH)]SC[Dab][AEEA][Aun]-OH; thioether N-14): 4 nM; for `CC(C)C[C@H]1NC(=O)[C@H](CCCN)NC(=O)[C@H](C(C)C)NC(=O)[C@H](Cc2ccc(-c3ccccc3)cc2)NC(=O)[C@H](C(C)C)NC(=O)[C@H](Cc2c[nH]c3ccccc23)NC(=O)[C@H](CC(=O)O)NC(=O)[C@H](Cc2ccc(OCC(=O)O)cc2)NC(=O)[C@H](C(C)O)NC(=O)CSC[C@@H](C(=O)N[C@@H](C)C(=O)NCCOCCOCC(=O)N[C@@H](CCCN)C(=O)NCCCCCCCCCCC(=O)O)NC(=O)[C@H](C(C)O)NC(=O)[C@H](C(C)C)NC(=O)[C@H](CC2CCCCC2)NC(=O)[C@H](Cc2c[nH]cn2)NC1=O` (stereo partly drawn) [Compound 3033] ({CH2CO}-[Thr(3ξ)]Y(Carboxymethyl)DWV[Bip]V[Orn][dL]H[Cha]V[Thr(3ξ)]CA[AEEA][Orn][Aun]-OH; thioether N-14): 11.3 nM; for `CC(C)C[C@H]1NC(=O)[C@H](CCCN)NC(=O)[C@H](Cc2ccc(O)cc2)NC(=O)[C@H](Cc2ccc(-c3ccccc3)cc2)NC(=O)[C@H](C(C)C)NC(=O)[C@H](Cc2c[nH]c3ccccc23)NC(=O)[C@H](CC(=O)O)NC(=O)[C@H](Cc2ccc(OCC(=O)O)cc2)NC(=O)[C@H](CCCNC(=N)N)NC(=O)CSC[C@@H](C(=O)N[C@@H](CCN)C(=O)NCCCCCCCCCCC(=O)O)NC(=O)[C@H](CCC(N)=O)NC(=O)[C@H](C(C)C)NC(=O)[C@H](CC2CCCCC2)NC(=O)[C@H](CCN)NC1=O` [Compound 3405] ({CH2CO}-RY(Carboxymethyl)DWV[Bip]Y[Orn][dL][Dab][Cha]VQC[Dab][Aun]-OH; thioether N-14): 8.2 nM. Turning to `Cc1cccc(C[C@@H]2NC(=O)[C@H](CC(=O)O)NC(=O)[C@H](Cc3ccc(OCC(=O)O)cc3)NC(=O)[C@H](CN)NC(=O)CSC[C@@H](C(=O)N[C@@H](CCN)C(=O)NCCCCCCCCCCC(=O)O)NC(=O)[C@H](C(C)O)NC(=O)[C@H](C(C)C)NC(=O)[C@H](CC3CCCCC3)NC(=O)[C@H](CCN)NC(=O)[C@@H](CC(C)C)NC(=O)[C@H](CCCN)NC(=O)[C@H](CCCNC(N)=O)NC(=O)[C@H](Cc3ccc(-c4ccccc4)cc3)NC(=O)[C@H](CCCNC(N)=O)NC2=O)c1` (stereo partly drawn) [Compound 3593] ({CH2CO}-[Dap]Y(Carboxymethyl)D[Phe(3-Me)][Cit][Bip][Cit][Orn][dL][Dab][Cha]V[Thr(3ξ)]C[Dab][Aun]-OH; thioether N-14), the IC50 turned out to be 363 nM. `CC(C)C[C@H]1NC(=O)[C@H](CCN)NC(=O)[C@H](CCCNC(N)=O)NC(=O)[C@H](Cc2ccc(-c3ccccc3)cc2)NC(=O)[C@H](C(C)C)NC(=O)[C@H](Cc2c[nH]c3ccccc23)NC(=O)[C@H](CC(=O)O)NC(=O)[C@H](Cc2ccc(OCC(=O)O)cc2)NC(=O)[C@H](CCCNC(=N)N)NC(=O)CSC[C@@H](C(=O)N[C@@H](CCCN)C(=O)NCCCCCCCCCCC(=O)O)NC(=O)[C@@H](CCC(N)=O)NC(=O)[C@H](C(C)C)NC(=O)[C@H](CC2CCCCC2)NC(=O)[C@H](CCN)NC1=O` [Compound 2816] ({CH2CO}-RY(Carboxymethyl)DWV[Bip][Cit][Dab][dL][Dab][Cha]V[dQ]C[Orn][Aun]-OH; thioether N-14): the IC50 was 74.9 nM. The same measure, in the same setting: the same measure for `CC(C)C[C@H]1NC(=O)[C@H](CCCN)NC(=O)[C@H](C(C)C)NC(=O)[C@H](Cc2ccc(-c3ccccc3)cc2)NC(=O)[C@H](C(C)C)NC(=O)[C@H](Cc2c[nH]c3ccccc23)NC(=O)[C@H](CC(=O)O)NC(=O)[C@H](Cc2ccc(OCC(=O)O)cc2)NC(=O)[C@H](CCCCNC(=N)N)NC(=O)CSC[C@@H](C(=O)NCCOCCOCC(=O)N[C@@H](CCCCN)C(=O)NCCCCCCCCCCCC(=O)O)NC(=O)[C@H](CO)NC(=O)[C@H](C(C)C)NC(=O)[C@H](CC2CCCCC2)NC(=O)[C@H](CCN)NC1=O` [Compound 3154] ({CH2CO}-[hArg]Y(Carboxymethyl)DWV[Bip]V[Orn][dL][Dab][Cha]VSC[AEEA]K[12Ado]-OH; thioether N-14): 14.9 nM.

Staying with this assay, now noted: Jurkat hPD1-PDL1 IC50, Jurkat cell line over-expressing human PD-1; PE-labeled PD-L1-Ig 20 nM final.
`Cc1cccc(C[C@@H]2NC(=O)[C@H](CC(=O)O)NC(=O)[C@H](Cc3ccc(OCC(=O)O)cc3)NC(=O)[C@H](Cc3ccc(C(N)=O)cc3)NC(=O)CSC[C@@H](C(=O)N[C@@H](CCN)C(=O)NCCCCCCCCCCC(=O)O)NC(=O)[C@H]([C@@H](C)O)NC(=O)[C@H](C(C)C)NC(=O)[C@H](CC3CCCCC3)NC(=O)[C@H](CCN)NC(=O)[C@@H](CC(C)C)NC(=O)[C@H](CCCN)NC(=O)[C@H](Cc3ccc(OCC(=O)O)cc3)NC(=O)[C@H](Cc3ccc(-c4ccccc4)cc3)NC(=O)[C@H](Cc3ccc(OCC(=O)O)cc3)NC2=O)c1` [Compound 2146] ({CH2CO}-[Phe(4-CONH2)]Y(Carboxymethyl)D[Phe(3-Me)]Y(Carboxymethyl)[Bip]Y(Carboxymethyl)[Orn][dL][Dab][Cha]VTC[Dab][Aun]-OH; thioether N-14) came in with a half-inhibitory concentration (IC50) of 13.2 nM.
